12 molecules from patent US20110053966A1, “SYNERGISTIC FUNGICIDAL COMPOSITIONS CONTAINING A 5-FLUOROPYRIMIDINE DERIVATIVE FOR FUNGAL CONTROL IN CEREALS” (DOW AGROSCIENCES LLC, priority 2009, published 2011) can be followed below.

Test [1] has as its system Septoria tritici (SEPTTR). Description: 3-day curative test (3DC) vs. leaf blotch of wheat. It is filed as in vivo. The conditions noted are these: Zymoseptoria tritici, read-out: % DC Obs (percent disease control observed); for pest or weed control at 0.2 ppm: application rate 0.2 ppm. On the procedure: (§1) Evaluation of Curative and Protectant Activity of Fungicide Mixtures vs. Leaf Blotch of Wheat (Mycosphaerella graminicola; anamorph: Septoria tritici; Bayer code: SEPTTR)
(§2) Wheat plants (variety Yuma) were grown from seed in a greenhouse in plastic pots with a surface area of 27.5 square centimeters (cm2) containing 50% mineral soil/50% soil-less Metro mix, with 8-12 seedlings per pot. The plants were employed for testing when the first leaf was fully emerged, which typically took 7 to 8 days after planting. Test plants were inoculated with an aqueous spore suspension of Septoria tritici either 3-days prior to (3-day curative test; 3DC) or 1-day after fungicide treatments (1-day protectant test; 1DP). After inoculation the plants were kept at 100% relative humidity (one day in a dark dew chamber followed by two days in a lighted mist chamber) to permit spores to germinate and infect the leaf. The plants were then transferred to a greenhouse until disease symptoms were fully expressed.
(§3) For the mixture studies with compound of Formula IA: Treatments consisted of fungicides, including a compound of Formula IA, epoxiconazole, prothioconazole, azoxystrobin, pyraclostrobin, penthiopyrad, isopyrazam, bixafen, boscalid, prochloraz, chlorothalonil, and isobutyric acid (3S,6S,7R,8R)-8-benzyl-3-[(3-isobutyryloxymethoxy-4-methoxypyridine-2-carbonyl)-amino]-6-methyl-4,9-dioxo-[1,5]dioxonan-7-yl ester (compound A), applied either individually or as two-way mixtures with a compound of Formula IA. Technical grades of materials were dissolved in acetone to make stock solutions, which were then used to perform three-fold dilutions in acetone either for each individual fungicide component or for the two-way mixtures. Desired fungicide rates were obtained after mixing dilutions with nine volumes of water containing 110 parts per million (ppm) Triton X-100. Ten mL fungicide solutions were applied onto six pots of plants using an automated booth sprayer, which utilized two 6218-1/4 JAUPM spray nozzles operating at 20 pounds per square inch (psi) set at opposing angles to cover both leaf surfaces. All sprayed plants were allowed to air dry prior to further handling. Control plants were sprayed in the same manner with the solvent blank.
(§4) For the mixture studies with compound of Formula IB: Compound IB and the compound B or their two-way mixtures were diluted in three-fold series using suspension concentrate (SC) formulations in 0.1% Trycol 5941. Spray solutions were applied onto plants using a track sprayer with an application volume of 200 Liters/hectare (L/Ha).
(§5) When disease reached 80 to 100% on the control plants, infection levels were assessed on treated plants visually and scored on a scale of 0 to 100 percent. Percentage of disease control was then calculated using the ratio of disease on treated plants relative to control plants.
(§6) Colby's equation was used to determine the fungicidal effects expected from the mixtures. (See Colby, S. R. Calculation of the synergistic and antagonistic response of herbicide combinations. Weeds 1967, 15, 20-22.)
(§7) The following equation was used to calculate the expected activity of mixtures containing two active ingredients, A and B:
(§8) A=observed efficacy of active component A at the same concentration as used in the mixture;
(§9) B=observed efficacy of active component B at the same concentration as used in the mixture.

In test [2] the test system is Septoria tritici (SEPTTR). Briefly: 1-day protectant test (1DP) vs. leaf blotch of wheat. It is filed as in vivo. The conditions noted are these: Zymoseptoria tritici, read-out: % DC Obs (percent disease control observed); for pest or weed control at 0.2 ppm: application rate 0.2 ppm. On the procedure: as §1, §2, §3, §4, §5, §6, §7, §8, §9
[3] abbreviates: 3DC SEPTTR, application rate 0.6 ppm.
Where [4] appears, read: 3DC SEPTTR, application rate 1.8 ppm.
The mark [5] stands for this setting: 3DC SEPTTR, application rate 5.6 ppm.
[6] abbreviates: 1DP SEPTTR, application rate 0.6 ppm.
[7] abbreviates: 1DP SEPTTR, application rate 1.8 ppm.
The mark [8] stands for this setting: 1DP SEPTTR, application rate 5.6 ppm.

Take `Nc1nc(OCc2ccc(F)cc2)ncc1F` [Compound IB]: the pest or weed control at 1.5 g/ha amounted to 74% in test [1] (3DC SEPTTR, application rate 1.5 g ai/Ha, SC formulation, track sprayer) and 46% in test [2] (1DP SEPTTR, application rate 1.5 g ai/Ha, SC formulation, track sprayer).
Regarding `Fc1ccc([C@]2(Cn3cncn3)O[C@H]2c2ccccc2Cl)cc1` [Epoxiconazole, re1-1-[[(2R,3S)-3-(2-chlorophenyl)-2-(4-fluorophenyl)oxiranyl]methyl]-1H-1,2,4-triazole], the pest or weed control at 0.125 ppm was 18% in test [1] (3DC SEPTTR, application rate 0.125 ppm) and 2% in test [2] (1DP SEPTTR, application rate 0.125 ppm). Further, the pest or weed control at 0.375 ppm came to 46% in test [1] (3DC SEPTTR, application rate 0.375 ppm) and 83% in test [2] (1DP SEPTTR, application rate 0.375 ppm).
As for `OC(Cc1ccccc1Cl)(Cn1[nH]cnc1=S)C1(Cl)CC1` (stereo not shown) [Prothioconazole, 2-[2-(1-chlorocyclopropyl)-3-(2-chlorophenyl)-2-hydroxypropyl]-1,2-dihydro-3H-1,2,4-triazole-3-thione], the pest or weed control at 0.6 ppm was 10% in test [1] (setting [3]) and 2% in test [2] (setting [6]). Also, the results for the pest or weed control at 1.8 ppm in test [1] (setting [4]) and in test [2] (setting [7]) were 8% and 2%, respectively. The pest or weed control at 5.6 ppm was 20% in test [1] (setting [5]) and 25% in test [2] (setting [8]).
For `CCCN(CCOc1c(Cl)cc(Cl)cc1Cl)C(=O)n1ccnc1` [Prochloraz, N-propyl-N-[2-(2,4,6-trichlorophenoxy)ethyl]-1H-imidazole-1-carboxamide], in test [1], the pest or weed control at 1.8 ppm amounted to 24% and the pest or weed control at 5.6 ppm was 22%. For the same molecule, in test [2], the pest or weed control at 1.8 ppm was determined as 10% and the pest or weed control at 5.6 ppm came out at 33%.
As to `CO/C=C(/C(=O)OC)c1ccccc1Oc1cc(Oc2ccccc2C#N)ncn1` [Azoxystrobin, methyl (αE)-2-[[6-(2-cyanophenoxy)-4-pyrimidinyl]oxy]-α-(methoxymethylene)benzeneacetate], the pest or weed control at 0.6 ppm in test [1] (setting [3]) came out at 10%; in test [2] (setting [6]), 3%. The pest or weed control at 1.8 ppm in test [1] (setting [4]) was 14%; in test [2] (setting [7]), 3%. Besides, the pest or weed control at 5.6 ppm in test [1] (setting [5]) was determined as 20%; in test [2] (setting [8]), 33%.
Regarding `O=C(Nc1ccccc1-c1ccc(Cl)cc1)c1cccnc1Cl` [Boscalid, 2-chloro-N-(4′-chloro[1,1′-biphenyl]-2-yl)-3-pyridinecarboxamide], the figures for the pest or weed control at 1.8 ppm in test [1] (setting [4]) and in test [2] (setting [7]) were 12% and 5%, respectively. Also, the pest or weed control at 5.6 ppm in test [1] (setting [5]) worked out at 34%; in test [2] (setting [8]), 30%.
In the case of `Cc1ccc(COc2ncc(F)c(N)n2)cc1` [Compound IA], the pest or weed control at 0.03 ppm in test [1] (3DC SEPTTR, application rate 0.03 ppm) stood at 2%; in test [2] (1DP SEPTTR, application rate 0.03 ppm) it was 2%. Further, the pest or weed control at 0.1 ppm was 4% in test [1] (3DC SEPTTR, application rate 0.1 ppm) and 3% in test [2] (1DP SEPTTR, application rate 0.1 ppm). Moreover, the pest or weed control at 0.3 ppm came to 10% in test [1] (3DC SEPTTR, application rate 0.3 ppm) and 0% in test [2] (1DP SEPTTR, application rate 0.3 ppm). Moreover, the pest or weed control at 0.9 ppm in test [1] (3DC SEPTTR, application rate 0.9 ppm) is 44%; in test [2] (1DP SEPTTR, application rate 0.9 ppm), 22%. Besides, the pest or weed control at 2.8 ppm in test [1] (3DC SEPTTR, application rate 2.8 ppm) stood at 94%; in test [2] (1DP SEPTTR, application rate 2.8 ppm), 85%. In addition, the pest or weed control at 8.3 ppm in test [1] (3DC SEPTTR, application rate 8.3 ppm) was determined as 100%; in test [2] (1DP SEPTTR, application rate 8.3 ppm), 98%.
For `Cn1cc(C(=O)Nc2ccc(F)cc2-c2ccc(Cl)c(Cl)c2)c(C(F)F)n1` [Bixafen, N-(3′,4′-dichloro-5-fluoro[1,1′-biphenyl]-2-yl)-3-(difluoromethyl)-1-methyl-1H-pyrazole-4-carboxamide], the pest or weed control at 0.2 ppm turned out to be 6% in test [1] (3DC SEPTTR) and 3% in test [2] (1DP SEPTTR). For the same molecule, the pest or weed control at 0.6 ppm amounted to 4% in test [1] (setting [3]) and 7% in test [2] (setting [6]). Further, the pest or weed control at 1.8 ppm was 14% in test [1] (setting [4]) and 12% in test [2] (setting [7]).
On to `CC(C)CC(C)c1sccc1NC(=O)c1cn(C)nc1C(F)(F)F` (stereo not shown) [Penthiopyrad, N-[2-(1,3-dimethylbutyl)-3-thienyl]-1-methyl-3-(trifluoromethyl)-1H-pyrazole-4-carboxamide], for which the pest or weed control at 0.2 ppm in test [1] (3DC SEPTTR) was determined as 8%; in test [2] (1DP SEPTTR) it was 2%. Further, the results for the pest or weed control at 0.6 ppm in test [1] (setting [3]) and in test [2] (setting [6]) were 4% and 10%, respectively. In addition, the pest or weed control at 1.8 ppm in test [1] (setting [4]) turned out to be 4%; in test [2] (setting [7]) it was 17%.
Turning to `CC(C)C1C2CCC1c1c(NC(=O)c3cn(C)nc3C(F)F)cccc12` (stereo not shown) [Isopyrazam, 3-(difluoromethyl)-1-methyl-N-[1,2,3,4-tetrahydro-9-(1-methylethyl)-1,4-methanonaphthalen-5-yl]-1H-pyrazole-4-carboxamide], the pest or weed control at 0.6 ppm turned out to be 10% in test [1] and 15% in test [2]. Also, the pest or weed control at 1.8 ppm was determined as 18% in test [1] and 23% in test [2].
With `COc1ccnc(C(=O)N[C@H]2COC(=O)[C@H](Cc3ccccc3)[C@@H](OC(=O)C(C)C)[C@H](C)OC2=O)c1OCOC(=O)C(C)C` [A, Isobutyric acid (3S,6S,7R,8R)-8-benzyl-3-[(3-isobutyryloxymethoxy-4-methoxy-pyridine-2-carbonyl)-amino]-6-methyl-4,9-dioxo-[1,5]dioxonan-7-yl ester], in test [1], the pest or weed control at 0.45 ppm worked out at 22% and the pest or weed control at 1.35 ppm worked out at 52%. Moreover, in test [2], the pest or weed control at 0.45 ppm turned out to be 3% and the pest or weed control at 1.35 ppm worked out at 80%.
For the molecule `N#Cc1c(Cl)c(Cl)c(Cl)c(C#N)c1Cl` [Chlorothalanil, 2,4,5,6-tetrachloro-1,3-benzenedicarbonitrile], the pest or weed control at 13.5 ppm in test [1] (3DC SEPTTR, application rate 13.5 ppm) was 4%; in test [2] (1DP SEPTTR, application rate 13.5 ppm), 0%. Further, the pest or weed control at 42 ppm in test [1] (3DC SEPTTR, application rate 42 ppm) came out at 4%; in test [2] (1DP SEPTTR, application rate 42 ppm), 2%. In addition, the pest or weed control at 125 ppm in test [1] (3DC SEPTTR, application rate 125 ppm) was 6%; in test [2] (1DP SEPTTR, application rate 125 ppm) it was 0%.
